Data on 2 compounds can be found in US10168342B2, “Lipid probes and uses thereof” (THE SCRIPPS RESEARCH INSTITUTE, priority 2015, dated 2019).

Holding throughout (test): In situ competitive SILAC profiling with A-DA probe in (PMA-stimulated) A549 cells
Common to all, as to settings: A549 cells, A-DA probe

Experiment [1] concerns the target T1, A-DA lipid probe targets in A549 cells (Homo sapiens, UniProt O95470).
T1 sequence (O95470 1-568): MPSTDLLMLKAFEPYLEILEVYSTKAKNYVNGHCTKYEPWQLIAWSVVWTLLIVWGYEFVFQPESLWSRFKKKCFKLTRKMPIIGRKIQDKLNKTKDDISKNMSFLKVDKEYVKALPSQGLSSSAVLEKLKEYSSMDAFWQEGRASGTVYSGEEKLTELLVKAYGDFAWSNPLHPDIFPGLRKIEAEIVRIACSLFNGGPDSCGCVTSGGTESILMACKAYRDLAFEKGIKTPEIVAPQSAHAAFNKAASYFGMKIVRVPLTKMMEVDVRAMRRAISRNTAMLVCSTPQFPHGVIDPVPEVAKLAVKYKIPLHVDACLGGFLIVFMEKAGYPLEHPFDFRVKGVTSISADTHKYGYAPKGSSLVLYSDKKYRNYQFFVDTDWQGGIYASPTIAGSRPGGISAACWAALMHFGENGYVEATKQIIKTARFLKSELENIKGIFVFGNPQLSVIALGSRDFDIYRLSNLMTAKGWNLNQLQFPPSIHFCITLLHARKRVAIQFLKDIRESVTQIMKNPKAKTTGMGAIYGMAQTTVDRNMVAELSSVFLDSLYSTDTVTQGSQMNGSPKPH

The target in experiment [2] is T2, A-DA lipid probe targets in A549 cells (Homo sapiens, UniProt P50402).
T2 sequence (P50402 1-254): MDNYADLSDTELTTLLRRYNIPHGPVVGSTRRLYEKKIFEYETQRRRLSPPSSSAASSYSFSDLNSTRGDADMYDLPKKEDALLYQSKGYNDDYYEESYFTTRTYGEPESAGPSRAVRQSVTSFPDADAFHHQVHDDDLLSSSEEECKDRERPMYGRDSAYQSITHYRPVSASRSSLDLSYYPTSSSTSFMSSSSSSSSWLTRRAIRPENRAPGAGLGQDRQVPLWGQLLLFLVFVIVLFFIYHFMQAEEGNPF

Experiment [3] has as its target A-DA lipid probe targets in A549 cells (Homo sapiens, UniProt Q14534).
Experiment [4] concerns the target T3, A-DA lipid probe targets in A549 cells (Homo sapiens, UniProt Q15738).
T3 sequence (Q15738 1-373): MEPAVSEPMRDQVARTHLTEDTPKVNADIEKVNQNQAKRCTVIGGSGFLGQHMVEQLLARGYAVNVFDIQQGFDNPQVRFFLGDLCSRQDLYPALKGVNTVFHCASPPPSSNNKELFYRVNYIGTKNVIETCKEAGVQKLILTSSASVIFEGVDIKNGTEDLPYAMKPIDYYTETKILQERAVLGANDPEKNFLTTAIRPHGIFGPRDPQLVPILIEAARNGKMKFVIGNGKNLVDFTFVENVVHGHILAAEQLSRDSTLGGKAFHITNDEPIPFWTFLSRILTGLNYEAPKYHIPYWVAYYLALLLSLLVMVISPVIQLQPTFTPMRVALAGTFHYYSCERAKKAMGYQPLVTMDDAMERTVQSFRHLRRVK

In experiment [5] the target is T4, A-DA lipid probe targets in A549 cells (Homo sapiens, UniProt Q86XL3).
T4 sequence (Q86XL3 1-938): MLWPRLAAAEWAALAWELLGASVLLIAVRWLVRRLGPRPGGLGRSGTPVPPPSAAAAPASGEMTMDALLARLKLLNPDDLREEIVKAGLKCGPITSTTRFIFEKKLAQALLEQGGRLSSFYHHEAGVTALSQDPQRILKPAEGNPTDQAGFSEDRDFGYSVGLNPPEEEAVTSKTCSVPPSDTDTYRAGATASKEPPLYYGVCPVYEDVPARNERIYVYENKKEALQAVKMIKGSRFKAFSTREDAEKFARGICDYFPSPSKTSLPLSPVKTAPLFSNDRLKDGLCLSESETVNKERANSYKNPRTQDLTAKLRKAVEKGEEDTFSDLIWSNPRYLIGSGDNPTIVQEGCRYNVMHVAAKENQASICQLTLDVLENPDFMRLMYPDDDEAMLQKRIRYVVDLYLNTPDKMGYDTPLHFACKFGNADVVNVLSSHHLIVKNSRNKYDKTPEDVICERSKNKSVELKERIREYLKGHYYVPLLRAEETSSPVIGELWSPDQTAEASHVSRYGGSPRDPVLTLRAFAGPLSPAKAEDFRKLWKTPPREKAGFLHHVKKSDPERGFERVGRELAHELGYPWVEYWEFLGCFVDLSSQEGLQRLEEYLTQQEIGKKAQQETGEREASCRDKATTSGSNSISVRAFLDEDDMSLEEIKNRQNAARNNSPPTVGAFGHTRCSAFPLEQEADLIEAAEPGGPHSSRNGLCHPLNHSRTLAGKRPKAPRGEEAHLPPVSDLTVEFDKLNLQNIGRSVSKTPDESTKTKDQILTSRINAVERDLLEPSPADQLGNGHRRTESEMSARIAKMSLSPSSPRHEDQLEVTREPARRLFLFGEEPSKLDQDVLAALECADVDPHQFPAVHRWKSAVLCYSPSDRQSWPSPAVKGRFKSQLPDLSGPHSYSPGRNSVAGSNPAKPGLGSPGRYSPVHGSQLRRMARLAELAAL

A-DA lipid probe targets in A549 cells (Homo sapiens, UniProt Q14534), sequence (Q14534 whole entry): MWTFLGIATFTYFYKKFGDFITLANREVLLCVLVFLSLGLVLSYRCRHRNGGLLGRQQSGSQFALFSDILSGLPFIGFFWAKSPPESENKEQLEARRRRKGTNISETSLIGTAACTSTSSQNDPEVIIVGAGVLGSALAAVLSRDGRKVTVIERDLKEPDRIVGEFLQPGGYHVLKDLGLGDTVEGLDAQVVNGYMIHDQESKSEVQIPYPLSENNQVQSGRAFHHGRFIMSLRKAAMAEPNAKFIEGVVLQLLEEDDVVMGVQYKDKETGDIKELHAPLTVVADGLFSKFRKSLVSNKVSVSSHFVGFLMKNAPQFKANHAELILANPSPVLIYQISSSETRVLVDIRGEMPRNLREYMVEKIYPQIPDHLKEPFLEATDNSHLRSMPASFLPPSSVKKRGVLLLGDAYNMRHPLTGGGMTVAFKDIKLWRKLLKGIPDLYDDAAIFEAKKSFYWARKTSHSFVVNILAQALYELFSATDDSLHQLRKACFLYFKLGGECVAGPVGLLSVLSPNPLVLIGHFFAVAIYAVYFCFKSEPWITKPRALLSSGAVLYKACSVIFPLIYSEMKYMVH

As for `C=CCN(C)CCCCCCOc1ccc(C(=O)c2ccc(Br)cc2)c(F)c1` [Ro488071], the “SILAC ratio, SGPL1 (O95470)” value in experiment [1] (competitor 5 μM) was 1.5; in experiment [1] (competitor 50 μM), 3.0. Moreover, the “SILAC ratio, EMD (O08579)” value is listed as 0.6 in experiment [2] (competitor 5 μM) and 0.8 in experiment [2] (competitor 50 μM). Besides, the entries for the “SILAC ratio, SQLE (Q14534)” value in experiment [3] (competitor 5 μM) and in experiment [3] (competitor 50 μM) were 1.4 and 3.3, respectively. Further, the “SILAC ratio, NSDHL (Q15738)” value in experiment [4] (competitor 5 μM) was determined as 1.5; in experiment [4] (competitor 50 μM) it was 2.5. Moreover, the “SILAC ratio, ANKLE2 (Q86XL3)” value is given as 1.7 in experiment [5] (competitor 5 μM) and 3.1 in experiment [5] (competitor 50 μM).
For `O=C(/C=C/c1cccnc1)NCCCCC1CCN(C(=O)c2ccccc2)CC1` [FK-866, reference compound], in experiment [1] (competitor 25 μM), the “SILAC ratio, SGPL1 (O95470)” value is on record as 1.2. Also, in experiment [2] (competitor 25 μM), the “SILAC ratio, EMD (O08579)” value worked out at 1.3. In addition, in experiment [3] (competitor 25 μM), the “SILAC ratio, SQLE (Q14534)” value came to 1.6. For the same compound, the “SILAC ratio, NSDHL (Q15738)” value in experiment [4] (competitor 25 μM) was 1.4. Besides, the “SILAC ratio, ANKLE2 (Q86XL3)” value in experiment [5] (competitor 25 μM) is on record as 1.3.
